Laboratory results from ChEMBL document CHEMBL1201862, “PubChem BioAssay data set” (2004).
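Protocol summary: plate cells (96-well), add compound at 5 concentrations, incubate 48 h, interpolate endpoints linearly. Abbreviation: GI50, concentration required for 50% inhibition of growth.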 The source made the active and inactive calls. No stated cut-off is given here; in the data, active = GI50 up to about 1.1 µM and inactive = higher.

Legend:
Experiment in all cases: NCI tumour cell line growth inhibition, 48 h
[1] = test system: 786-0
[2] = test system: A498
[3] = test system: A549
[4] = test system: ACHN
[5] = test system: BT-549
[6] = test system: CAKI-1
[7] = test system: CCRF-CEM
[8] = test system: COLO 205
[9] = test system: DU-145
[10] = test system: EKVX
[11] = test system: HCC 2998
[12] = test system: HCT-116
[13] = test system: HCT-15
[14] = test system: HL-60
[15] = test system: HOP-62
[16] = test system: HOP-92
[17] = test system: HT-29
[18] = test system: Hs-578T
[19] = test system: IGROV-1
[20] = test system: K562
[21] = test system: KM12
[22] = test system: LOX IMVI
[23] = test system: M14
[24] = test system: MCF7
[25] = test system: MDA-MB-231
[26] = test system: MDA-MB-435
[27] = test system: MDA-N
[28] = test system: MOLT-4
[29] = test system: Malme-3M
[30] = test system: NCI-H226
[31] = test system: NCI-H23
[32] = test system: NCI-H460
[33] = test system: NCI-H522
[34] = test system: NCI/ADR-RES
[35] = test system: OVCAR-3
[36] = test system: OVCAR-4
[37] = test system: OVCAR-5
[38] = test system: OVCAR-8
[39] = test system: PC-3
[40] = test system: RPMI-8226
[41] = test system: RXF 393
[42] = test system: SF-268
[43] = test system: SF-295
[44] = test system: SF-539
[45] = test system: SK-MEL-28
[46] = test system: SK-MEL-2
[47] = test system: SK-MEL-5
[48] = test system: SK-OV-3
[49] = test system: SN12C
[50] = test system: SNB-19
[51] = test system: SNB-75
[52] = test system: SR
[53] = test system: SW-620
[54] = test system: T47D
[55] = test system: TK-10
[56] = test system: U-251
[57] = test system: UACC-257
[58] = test system: UACC-62
[59] = test system: UO-31

With `CN(C)CCC(=O)[C@@]1(O)CC[C@H]2[C@@H]3CC=C4C[C@@H](O)CC[C@]4(C)[C@H]3CC[C@@]21C` the GI50 [1] was 3.68 µM (inactive), the GI50 [2] was 16.1 µM (inactive) and the GI50 [3] was 37.1 µM (inactive). The GI50 [4] was 16.1 µM (inactive), the GI50 [5] was 17.9 µM (inactive) and the GI50 [6] was 17.5 µM (inactive). For the same molecule, the GI50 [7] was 5.25 µM (inactive), the GI50 [8] was 18.4 µM (inactive) and the GI50 [9] was 6.65 µM (inactive). For the same molecule, the GI50 [10] was 20.7 µM (inactive), the GI50 [11] was 21.3 µM (inactive) and the GI50 [12] was 18 µM (inactive). The GI50 [13] was 20.1 µM, the GI50 [14] was 17.4 µM (inactive) and the GI50 [15] was 14.2 µM (inactive). For the same molecule, the GI50 [16] was 20.9 µM (inactive), the GI50 [17] was 18.9 µM (inactive) and the GI50 [18] was 20.7 µM (inactive). The GI50 [19] was 17.8 µM (inactive), the GI50 [20] was 18.2 µM (inactive) and the GI50 [21] was 15.1 µM (inactive). For the same molecule, the GI50 [22] was 13.7 µM (inactive), the GI50 [23] was 18.2 µM (inactive) and the GI50 [24] was 4.38 µM (inactive). For the same molecule, the GI50 [25] was 18.5 µM (inactive), the GI50 [26] was 18.2 µM (inactive) and the GI50 [27] was 17.7 µM (inactive). The GI50 [28] was 13.9 µM (inactive), the GI50 [29] was 15.3 µM (inactive) and the GI50 [30] was 62.8 µM (inactive). The GI50 [31] was 23.6 µM (inactive), the GI50 [32] was 15.4 µM (inactive) and the GI50 [33] was 11.9 µM (inactive). For the same molecule, the GI50 [34] was 26.7 µM (inactive), the GI50 [35] was 9.02 µM (inactive) and the GI50 [36] was 33.4 µM (inactive). For the same molecule, the GI50 [37] was > 61.5 µM (inactive), the GI50 [38] was 20.2 µM (inactive) and the GI50 [39] was 13.4 µM (inactive). For the same molecule, the GI50 [40] was 1.58 µM (inactive), the GI50 [41] was 9.2 µM (inactive) and the GI50 [42] was 16.9 µM (inactive). For the same molecule, the GI50 [43] was 24.9 µM (inactive), the GI50 [44] was 2.6 µM (inactive) and the GI50 [45] was 17.2 µM (inactive). The GI50 [46] was 15.9 µM (inactive), the GI50 [47] was 29.9 µM (inactive) and the GI50 [48] was 29.8 µM (inactive). For the same molecule, the GI50 [49] was 16.9 µM (inactive), the GI50 [50] was 25.6 µM (inactive) and the GI50 [51] was 15.2 µM (inactive). The GI50 [52] was 12.6 µM (inactive), the GI50 [53] was 17.9 µM (inactive) and the GI50 [54] was 4.11 µM (inactive). For the same molecule, the GI50 [55] was 2.1 µM (inactive), the GI50 [56] was 17.3 µM (inactive) and the GI50 [57] was 13.3 µM (inactive). For the same molecule, the GI50 [58] was 16.7 µM (inactive) and the GI50 [59] was 15.6 µM (inactive).
For `C=C1CC[C@H](O)C(C)(C)[C@@H]1CC/C(C)=C/CC/C=C(\C)CC/C=C(\C)CCC=C(C)C`, the GI50 [1] was > 100 µM (inactive), the GI50 [2] was > 100 µM (inactive) and the GI50 [3] was > 100 µM (inactive). The GI50 [4] was > 100 µM (inactive), the GI50 [5] was > 100 µM (inactive) and the GI50 [6] was > 100 µM (inactive). For the same molecule, the GI50 [7] was 1.82 µM (inactive), the GI50 [8] was > 100 µM (inactive) and the GI50 [9] was > 100 µM (inactive). For the same molecule, the GI50 [10] was 97.9 µM (inactive), the GI50 [11] was 76.6 µM (inactive) and the GI50 [12] was 43.7 µM (inactive). The GI50 [13] was 87.3 µM, the GI50 [14] was 13.5 µM (inactive) and the GI50 [15] was > 100 µM (inactive). For the same molecule, the GI50 [16] was > 100 µM (inactive), the GI50 [17] was > 100 µM (inactive) and the GI50 [18] was > 100 µM (inactive). The GI50 [19] was > 100 µM (inactive), the GI50 [20] was > 100 µM (inactive) and the GI50 [21] was > 100 µM (inactive). For the same molecule, the GI50 [22] was > 100 µM (inactive), the GI50 [23] was > 100 µM (inactive) and the GI50 [24] was 27.6 µM (inactive). For the same molecule, the GI50 [25] was > 100 µM (inactive), the GI50 [26] was > 100 µM (inactive) and the GI50 [27] was > 100 µM (inactive). For the same molecule, the GI50 [28] was > 100 µM (inactive), the GI50 [29] was > 100 µM (inactive) and the GI50 [30] was 69.2 µM (inactive). The GI50 [31] was 45.7 µM (inactive), the GI50 [32] was > 100 µM (inactive) and the GI50 [33] was 29 µM (inactive). The GI50 [34] was > 100 µM (inactive), the GI50 [35] was > 100 µM (inactive) and the GI50 [36] was > 100 µM (inactive). The GI50 [37] was > 100 µM (inactive), the GI50 [38] was 57.8 µM (inactive) and the GI50 [39] was > 100 µM (inactive). For the same molecule, the GI50 [41] was 13.7 µM (inactive), the GI50 [42] was > 100 µM (inactive) and the GI50 [43] was > 100 µM (inactive). The GI50 [44] was > 100 µM (inactive), the GI50 [45] was > 100 µM (inactive) and the GI50 [46] was 46.7 µM (inactive). The GI50 [47] was 54 µM (inactive), the GI50 [48] was > 100 µM (inactive) and the GI50 [49] was 66.2 µM (inactive). For the same molecule, the GI50 [50] was > 100 µM (inactive), the GI50 [51] was > 100 µM (inactive) and the GI50 [52] was 59.6 µM (inactive). For the same molecule, the GI50 [53] was > 100 µM (inactive), the GI50 [54] was 18.7 µM (inactive) and the GI50 [55] was > 100 µM (inactive). For the same molecule, the GI50 [56] was > 100 µM (inactive), the GI50 [57] was > 100 µM (inactive) and the GI50 [58] was > 100 µM (inactive). For the same molecule, the GI50 [59] was > 100 µM (inactive).
